Experimental data reported in PubChem BioAssay (NCI).
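Exposure lasted 48 hours, with cells grown in 96-well plates and compounds tested at five concentrations. GI50 marks 50% less growth. TGI is the concentration that stops growth completely.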

What was measured:
Assay in all cases: DTP human tumour cell line panel, 48 h
DLD-1 colon = test system: DLD-1 colon
SN12C renal = test system: SN12C renal
KM20L2 colon = test system: KM20L2 colon
TK-10 renal = test system: TK-10 renal
786-0 renal = test system: 786-0 renal
MALME-3M melanoma = test system: MALME-3M melanoma
SK-MEL-5 melanoma = test system: SK-MEL-5 melanoma
OVCAR-3 ovarian = test system: OVCAR-3 ovarian
MOLT-4 leukemia = test system: MOLT-4 leukemia
SF-295 CNS = test system: SF-295 CNS
M14 melanoma = test system: M14 melanoma
HT29 colon = test system: HT29 colon
SNB-75 CNS = test system: SNB-75 CNS
LOX IMVI melanoma = test system: LOX IMVI melanoma
UO-31 renal = test system: UO-31 renal
UACC-257 melanoma = test system: UACC-257 melanoma
HCT-116 colon = test system: HCT-116 colon
IGROV1 ovarian = test system: IGROV1 ovarian
EKVX NSCLC = test system: EKVX NSCLC
HCT-15 colon = test system: HCT-15 colon
OVCAR-8 ovarian = test system: OVCAR-8 ovarian
HL-60(TB) leukemia = test system: HL-60(TB) leukemia
SK-OV-3 ovarian = test system: SK-OV-3 ovarian
KM12 colon = test system: KM12 colon
CCRF-CEM leukemia = test system: CCRF-CEM leukemia
OVCAR-5 ovarian = test system: OVCAR-5 ovarian
SF-268 CNS = test system: SF-268 CNS
COLO 205 colon = test system: COLO 205 colon
SF-539 CNS = test system: SF-539 CNS
NCI-H522 lung = test system: NCI-H522 lung
HOP-62 NSCLC = test system: HOP-62 NSCLC
ACHN renal = test system: ACHN renal
A549 NSCLC = test system: A549 NSCLC
OVCAR-4 ovarian = test system: OVCAR-4 ovarian
SNB-19 CNS = test system: SNB-19 CNS
A498 renal = test system: A498 renal
SK-MEL-28 melanoma = test system: SK-MEL-28 melanoma
UACC-62 melanoma = test system: UACC-62 melanoma
NCI-H23 lung = test system: NCI-H23 lung
K-562 leukemia = test system: K-562 leukemia
U251 CNS = test system: U251 CNS
RPMI-8226 leukemia = test system: RPMI-8226 leukemia
DMS 273 small cell lung = test system: DMS 273 small cell lung
SNB-78 CNS = test system: SNB-78 CNS
SW-620 colon = test system: SW-620 colon
LXFL 529 NSCLC = test system: LXFL 529 NSCLC
SK-MEL-2 melanoma = test system: SK-MEL-2 melanoma
NCI-H460 lung = test system: NCI-H460 lung
HCC-2998 colon = test system: HCC-2998 colon
HOP-92 NSCLC = test system: HOP-92 NSCLC
PC-3 prostate = test system: PC-3 prostate
DU-145 prostate = test system: DU-145 prostate
T-47D breast = test system: T-47D breast
HS 578T breast = test system: HS 578T breast
MDA-MB-231 breast = test system: MDA-MB-231 breast
NCI-H226 lung = test system: NCI-H226 lung
BT-549 breast = test system: BT-549 breast
RXF 393 renal = test system: RXF 393 renal
MDA-N = test system: MDA-N
MDA-MB-435 = test system: MDA-MB-435
MCF7 breast = test system: MCF7 breast
SR leukemia = test system: SR leukemia
CAKI-1 renal = test system: CAKI-1 renal
NCI/ADR-RES ovarian = test system: NCI/ADR-RES ovarian

In the case of N.N.N.N.O=C([O-])C(Cl)Cl.O=C([O-])C(Cl)Cl.[Co+3].[O-][Cl+3]([O-])([O-])[O-], the GI50 (DLD-1 colon) is reported as greater than 100 µM, the TGI (DLD-1 colon) is reported as greater than 100 µM and the GI50 (SN12C renal) is reported as greater than 100 µM. For the same compound, the TGI (SN12C renal) was greater than 100 µM, the GI50 (KM20L2 colon) was greater than 100 µM and the TGI (KM20L2 colon) was greater than 100 µM. For the same compound, the GI50 (TK-10 renal) was greater than 100 µM, the TGI (TK-10 renal) was greater than 100 µM and the GI50 (786-0 renal) was greater than 100 µM. It also gave a TGI (786-0 renal) greater than 100 µM, a GI50 (MALME-3M melanoma) greater than 100 µM and a TGI (MALME-3M melanoma) greater than 100 µM. For the same compound, the GI50 (SK-MEL-5 melanoma) was greater than 100 µM, the TGI (SK-MEL-5 melanoma) was greater than 100 µM and the GI50 (OVCAR-3 ovarian) was greater than 100 µM. The TGI (OVCAR-3 ovarian) was greater than 100 µM, the GI50 (MOLT-4 leukemia) was greater than 100 µM and the TGI (MOLT-4 leukemia) was greater than 100 µM. The GI50 (SF-295 CNS) was greater than 100 µM, the TGI (SF-295 CNS) was greater than 100 µM and the GI50 (M14 melanoma) was greater than 100 µM. For the same compound, the TGI (M14 melanoma) was greater than 100 µM, the GI50 (HT29 colon) was greater than 100 µM and the TGI (HT29 colon) was greater than 100 µM. For the same compound, the GI50 (SNB-75 CNS) was greater than 100 µM, the TGI (SNB-75 CNS) was greater than 100 µM and the GI50 (LOX IMVI melanoma) was greater than 100 µM. For the same compound, the TGI (LOX IMVI melanoma) was greater than 100 µM, the GI50 (UO-31 renal) was greater than 100 µM and the TGI (UO-31 renal) was greater than 100 µM. The GI50 (UACC-257 melanoma) was greater than 100 µM, the TGI (UACC-257 melanoma) was greater than 100 µM and the GI50 (HCT-116 colon) was greater than 100 µM. The TGI (HCT-116 colon) was greater than 100 µM, the GI50 (IGROV1 ovarian) was greater than 100 µM and the TGI (IGROV1 ovarian) was greater than 100 µM. The GI50 (EKVX NSCLC) was greater than 100 µM, the TGI (EKVX NSCLC) was greater than 100 µM and the GI50 (HCT-15 colon) was greater than 100 µM. The TGI (HCT-15 colon) was greater than 100 µM, the GI50 (OVCAR-8 ovarian) was greater than 100 µM and the TGI (OVCAR-8 ovarian) was greater than 100 µM. For the same compound, the GI50 (HL-60(TB) leukemia) was greater than 100 µM, the TGI (HL-60(TB) leukemia) was greater than 100 µM and the GI50 (SK-OV-3 ovarian) was greater than 100 µM. It also gave a TGI (SK-OV-3 ovarian) greater than 100 µM, a GI50 (KM12 colon) greater than 100 µM and a TGI (KM12 colon) greater than 100 µM. The GI50 (CCRF-CEM leukemia) was greater than 100 µM, the TGI (CCRF-CEM leukemia) was greater than 100 µM and the GI50 (OVCAR-5 ovarian) was greater than 100 µM. The TGI (OVCAR-5 ovarian) was greater than 100 µM, the GI50 (SF-268 CNS) was greater than 100 µM and the TGI (SF-268 CNS) was greater than 100 µM. The GI50 (COLO 205 colon) was greater than 100 µM, the TGI (COLO 205 colon) was greater than 100 µM and the GI50 (SF-539 CNS) was greater than 100 µM. The TGI (SF-539 CNS) was greater than 100 µM, the GI50 (NCI-H522 lung) was greater than 100 µM and the TGI (NCI-H522 lung) was greater than 100 µM. For the same compound, the GI50 (HOP-62 NSCLC) was greater than 100 µM, the TGI (HOP-62 NSCLC) was greater than 100 µM and the GI50 (ACHN renal) was greater than 100 µM. The TGI (ACHN renal) was greater than 100 µM, the GI50 (A549 NSCLC) was greater than 100 µM and the TGI (A549 NSCLC) was greater than 100 µM. For the same compound, the GI50 (OVCAR-4 ovarian) was greater than 100 µM, the TGI (OVCAR-4 ovarian) was greater than 100 µM and the GI50 (SNB-19 CNS) was greater than 100 µM. It also gave a TGI (SNB-19 CNS) greater than 100 µM, a GI50 (A498 renal) greater than 100 µM and a TGI (A498 renal) greater than 100 µM. For the same compound, the GI50 (SK-MEL-28 melanoma) was greater than 100 µM, the TGI (SK-MEL-28 melanoma) was greater than 100 µM and the GI50 (UACC-62 melanoma) was greater than 100 µM. It also gave a TGI (UACC-62 melanoma) greater than 100 µM, a GI50 (NCI-H23 lung) greater than 100 µM and a TGI (NCI-H23 lung) greater than 100 µM. The GI50 (K-562 leukemia) was greater than 100 µM, the TGI (K-562 leukemia) was greater than 100 µM and the GI50 (U251 CNS) was greater than 100 µM. The TGI (U251 CNS) was greater than 100 µM, the GI50 (RPMI-8226 leukemia) was greater than 100 µM and the TGI (RPMI-8226 leukemia) was greater than 100 µM. For the same compound, the GI50 (DMS 273 small cell lung) was greater than 100 µM, the TGI (DMS 273 small cell lung) was greater than 100 µM and the GI50 (SNB-78 CNS) was greater than 100 µM. It also gave a TGI (SNB-78 CNS) greater than 100 µM, a GI50 (SW-620 colon) greater than 100 µM and a TGI (SW-620 colon) greater than 100 µM. For the same compound, the GI50 (LXFL 529 NSCLC) was greater than 100 µM, the TGI (LXFL 529 NSCLC) was greater than 100 µM and the GI50 (SK-MEL-2 melanoma) was greater than 100 µM. For the same compound, the TGI (SK-MEL-2 melanoma) was greater than 100 µM, the GI50 (NCI-H460 lung) was greater than 100 µM and the TGI (NCI-H460 lung) was greater than 100 µM. It also gave a GI50 (HCC-2998 colon) greater than 100 µM, a TGI (HCC-2998 colon) greater than 100 µM and a GI50 (HOP-92 NSCLC) greater than 100 µM. For the same compound, the TGI (HOP-92 NSCLC) was greater than 100 µM.

With CC(CCC(=O)O)C(=O)O (centres undefined) the TGI (SN12C renal) was greater than 100 µM, the TGI (TK-10 renal) was greater than 100 µM and the TGI (786-0 renal) was greater than 100 µM. It also gave a TGI (MALME-3M melanoma) greater than 100 µM, a TGI (SK-MEL-5 melanoma) greater than 100 µM and a TGI (OVCAR-3 ovarian) greater than 100 µM. For the same compound, the TGI (MOLT-4 leukemia) was greater than 100 µM, the TGI (SF-295 CNS) was greater than 100 µM and the TGI (PC-3 prostate) was greater than 100 µM. The TGI (DU-145 prostate) was greater than 100 µM, the TGI (M14 melanoma) was greater than 100 µM and the TGI (T-47D breast) was greater than 100 µM. It also gave a TGI (HT29 colon) greater than 100 µM, a TGI (SNB-75 CNS) greater than 100 µM and a TGI (LOX IMVI melanoma) greater than 100 µM. The TGI (UO-31 renal) was greater than 100 µM, the TGI (HS 578T breast) was greater than 100 µM and the TGI (UACC-257 melanoma) was greater than 100 µM. For the same compound, the TGI (MDA-MB-231 breast) was greater than 100 µM, the TGI (HCT-116 colon) was greater than 100 µM and the TGI (IGROV1 ovarian) was greater than 100 µM. For the same compound, the TGI (NCI-H226 lung) was greater than 100 µM, the TGI (EKVX NSCLC) was greater than 100 µM and the TGI (HCT-15 colon) was greater than 100 µM. The TGI (OVCAR-8 ovarian) was greater than 100 µM, the TGI (HL-60(TB) leukemia) was greater than 100 µM and the TGI (SK-OV-3 ovarian) was greater than 100 µM. For the same compound, the TGI (KM12 colon) was greater than 100 µM, the TGI (CCRF-CEM leukemia) was greater than 100 µM and the TGI (OVCAR-5 ovarian) was greater than 100 µM. The TGI (SF-268 CNS) was greater than 100 µM, the TGI (COLO 205 colon) was greater than 100 µM and the TGI (BT-549 breast) was greater than 100 µM. It also gave a TGI (SF-539 CNS) greater than 100 µM, a TGI (RXF 393 renal) greater than 100 µM and a TGI (NCI-H522 lung) greater than 100 µM. For the same compound, the TGI (MDA-N) was greater than 100 µM, the TGI (HOP-62 NSCLC) was greater than 100 µM and the TGI (ACHN renal) was greater than 100 µM. For the same compound, the TGI (A549 NSCLC) was greater than 100 µM, the TGI (OVCAR-4 ovarian) was greater than 100 µM and the TGI (SNB-19 CNS) was greater than 100 µM. For the same compound, the TGI (A498 renal) was greater than 100 µM, the TGI (SK-MEL-28 melanoma) was greater than 100 µM and the TGI (UACC-62 melanoma) was greater than 100 µM. It also gave a TGI (MDA-MB-435) greater than 100 µM, a TGI (MCF7 breast) greater than 100 µM and a TGI (NCI-H23 lung) greater than 100 µM. It also gave a TGI (K-562 leukemia) greater than 100 µM, a TGI (U251 CNS) greater than 100 µM and a TGI (RPMI-8226 leukemia) greater than 100 µM. It also gave a TGI (SR leukemia) greater than 100 µM, a TGI (SW-620 colon) greater than 100 µM and a TGI (CAKI-1 renal) greater than 100 µM. It also gave a TGI (NCI/ADR-RES ovarian) greater than 100 µM, a TGI (SK-MEL-2 melanoma) greater than 100 µM and a TGI (NCI-H460 lung) greater than 100 µM. It also gave a TGI (HCC-2998 colon) greater than 100 µM and a TGI (HOP-92 NSCLC) greater than 100 µM.
